Columns and labels:
[1] = target: T1, human TTK (Homo sapiens, UniProt P33981); assay: TTK inhibition assay (indirect ELISA); format: biochemical; details: GST-TTK 0.68 nM, 16 μM ATP; read-out: IC50 Ranges TTK
T1 construct: amino terminal GST fusion of full length human TTK; purchased Invitrogen
T1 sequence (P33981 1-857): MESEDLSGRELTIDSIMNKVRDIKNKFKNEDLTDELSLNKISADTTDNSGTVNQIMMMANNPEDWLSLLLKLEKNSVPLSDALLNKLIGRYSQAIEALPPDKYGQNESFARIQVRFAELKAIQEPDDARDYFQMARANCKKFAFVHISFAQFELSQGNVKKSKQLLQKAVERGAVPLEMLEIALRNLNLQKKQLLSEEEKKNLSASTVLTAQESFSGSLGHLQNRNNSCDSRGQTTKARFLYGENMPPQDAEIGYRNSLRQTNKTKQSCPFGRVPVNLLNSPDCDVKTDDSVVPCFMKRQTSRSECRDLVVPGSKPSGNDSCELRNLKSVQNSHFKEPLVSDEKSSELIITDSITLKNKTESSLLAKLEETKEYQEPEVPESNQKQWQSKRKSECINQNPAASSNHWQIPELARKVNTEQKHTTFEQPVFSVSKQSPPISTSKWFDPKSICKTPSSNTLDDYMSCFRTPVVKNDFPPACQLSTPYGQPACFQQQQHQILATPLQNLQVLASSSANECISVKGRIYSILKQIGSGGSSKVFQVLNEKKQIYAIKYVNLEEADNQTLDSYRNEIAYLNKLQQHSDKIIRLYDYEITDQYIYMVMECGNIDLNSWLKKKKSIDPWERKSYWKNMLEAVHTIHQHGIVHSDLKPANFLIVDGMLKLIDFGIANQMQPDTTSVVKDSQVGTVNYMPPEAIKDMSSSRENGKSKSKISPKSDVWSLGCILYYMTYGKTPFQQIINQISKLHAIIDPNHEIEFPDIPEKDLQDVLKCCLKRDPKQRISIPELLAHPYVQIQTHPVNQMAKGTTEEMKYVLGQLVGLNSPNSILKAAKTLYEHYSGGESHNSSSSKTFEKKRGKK

[2] = system: HCT116 colon cancer cells; assay: Cell growth inhibition, Sulforhodamine B assay, HCT116; format: cell-based; details: Homo sapiens, HCT-116, 120 h, 5 days culture, SRB assay, read-out: Cell Line GI50 Range HCT116
[3] = target: T2, human PLK4 (Homo sapiens, UniProt O00444); assay: PLK4 inhibition assay (indirect ELISA); format: biochemical; details: GST-PLK4 4 nM, 15 μM ATP; read-out: IC50 Ranges PLK4
T2 construct: amino terminal GST fusion of residues 1-391 of human PLK4; made in house; host or cells: E. coli
T2 sequence (O00444 1-391): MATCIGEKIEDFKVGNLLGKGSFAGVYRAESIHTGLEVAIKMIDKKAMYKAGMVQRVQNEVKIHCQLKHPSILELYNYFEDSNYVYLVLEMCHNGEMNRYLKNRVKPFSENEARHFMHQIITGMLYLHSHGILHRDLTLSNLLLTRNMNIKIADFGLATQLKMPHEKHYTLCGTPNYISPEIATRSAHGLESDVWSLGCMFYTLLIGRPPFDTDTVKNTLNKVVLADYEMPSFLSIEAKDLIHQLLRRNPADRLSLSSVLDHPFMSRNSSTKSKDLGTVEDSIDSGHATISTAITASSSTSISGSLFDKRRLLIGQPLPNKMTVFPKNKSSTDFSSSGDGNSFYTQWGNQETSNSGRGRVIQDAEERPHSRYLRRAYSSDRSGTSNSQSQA
Method in brief: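 Compounds were tested either at a single 10 μM dose or across 10-point titrations (typically 0.5 to 0.001 μM), preincubated 15 min with 4 nM GST-PLK4 (human 1-391, dephosphorylated) before 15 μM ATP was added. MBP substrate phosphorylation over 30 min, pH 7.5 HEPES/MgCl2 buffer, read by HRP/TMB ELISA (450 nm). % inhibition vs. high-activity control; IC50 by logistic fit.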

[4] = target: T3, Aurora B (Homo sapiens, UniProt Q96GD4); assay: Aurora B inhibition assay (Z-Lyte); format: biochemical; details: 28 nM Aurora B, 128 μM ATP; read-out: IC50 Ranges Aurora B
T3 construct: purchased Invitrogen PV3970
Method: Aurora B inhibition was determined using the Z-Lyte assay kit from Invitrogen. The assay was performed using the recommended manufacturer's instructions with 128 μM ATP and 28 nM Aurora B (Invitrogen cat #PV3970). The % inhibition values were determined according to the manufacturer's directions and IC50 values were obtained using a non-linear 4 point logistic curve fit (XLfit4, IDBS)

[5] = system: MDA-MB-468 breast cancer cells; assay: Cell growth inhibition, Sulforhodamine B assay, MDA-MB-468; format: cell-based; details: Homo sapiens, 120 h, 5 days culture, SRB assay, read-out: Cell Line GI50 Range MDA-MB-468
Method: Breast cancer cells (MDA-MB-231, MDA-MB-468), colon cancer cells (HCT116, HT29) and ovarian cancer cells (PA-1, OVCAR-3) were seeded (1000 to 4000 in 80 μl per well depending on the cell growth rate) into 96 well plates 24 hours before compound overlay. Compounds were prepared as 10 mM stock solutions in 100% DMSO which were diluted with DMEM (Dulbecco's Modified Eagle's Medium) cell growth Medium (Invitrogen, Burlington, ON, Canada) containing 10% FBS (Fetal Bovine Serum) to concentrations ranging from 50 nM to 250 μM. Aliquots (20 μl) from each concentration were overlaid to 80 μl of the pre-seeded cells in the 96 well plates to make final concentrations of 10 nM to 50 μM. The cells were cultured for 5 days before the Sulforhodamine B assay (SRB) was performed to determine the compound's cell growth inhibition activity.
Sulforhodamine B (purchased from Sigma, Oakville, ON, Canada) is a water-soluble dye that binds to the basic amino acids of the cellular proteins. Thus, colorimetric measurement of the bound dye provides an estimate of the total protein mass that is related to the cell number. the cells are fixed in situ by gently aspirating off the culture media and adding 50 μl ice cold 10% Trichloroacetic Acid (TCA) per well and incubate at 4° C. for 30-60 min, The plates are washed with water five times and allowed to air dry for 5 min. Addition of 50 μl 0.4% (w/v) SRB solution in 1% (v/v) acetic acid to each well and incubatation for 30 min at RT completes the staining reaction. Following staining, plates are washed four times with 1% acetic acid to remove unbound dye and then allowed to air dry for 5 min. The stain is solubilized with 100 μl of 10 mM Tris pH 10.5 per well. Absorbance is read at 570 nm.
The percentage (%) of relative growth inhibition was calculated by comparing to DMSO treated only cells (100%). […] The GI50 was calculated using GraphPad PRISM software (GraphPad Software, Inc., San Diego, Calif., USA).

[6] = system: PA-1 ovarian cancer cells; assay: Cell growth inhibition, Sulforhodamine B assay, PA-1; format: cell-based; details: 120 h, 5 days culture, SRB assay, read-out: Cell Line GI50 Range PA-1
[7] = system: HT29 colon cancer cells; assay: Cell growth inhibition, Sulforhodamine B assay, HT29; format: cell-based; details: Homo sapiens, HT-29, 120 h, 5 days culture, SRB assay, read-out: Cell Line GI50 Range HT29

T3 sequence (Q96GD4 whole entry): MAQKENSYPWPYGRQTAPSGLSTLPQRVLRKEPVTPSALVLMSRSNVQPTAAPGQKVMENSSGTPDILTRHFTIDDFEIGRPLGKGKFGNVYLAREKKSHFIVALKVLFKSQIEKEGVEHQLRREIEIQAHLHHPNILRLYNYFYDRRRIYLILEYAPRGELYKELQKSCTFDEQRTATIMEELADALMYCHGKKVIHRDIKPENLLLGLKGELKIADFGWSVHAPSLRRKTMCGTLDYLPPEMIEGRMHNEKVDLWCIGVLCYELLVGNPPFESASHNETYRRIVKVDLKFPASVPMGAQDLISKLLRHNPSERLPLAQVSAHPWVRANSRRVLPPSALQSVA

O=C(Nc1ccc2[nH]nc(-c3ccc(N4CCC(O)CC4)cc3)c2c1)C(c1cccs1)N1CCCC1 (centres unmarked) [Example A88, N-(3-(4-(4-hydroxypiperidin-1-yl)phenyl)-1H-indazol-5-yl)-2-(pyrrolidin-1-yl)-2-(thiophen-2-yl)acetamide]
≤ 5 µM: IC50 [1] | GI50 [2] | IC50 [3] | IC50 [4] | GI50 [5] | GI50 [6] | GI50 [7]

O=C(N[C@H](c1ccccn1)C1CC1)c1ccc2[nH]nc(-c3ccc(OC4CCN(C5COC5)CC4)cc3)c2c1 [Example A197, (S)—N-(cyclopropyl(pyridin-2-yl)methyl)-3-(4-((1-(oxetan-3-yl)piperidin-4-yl)oxy)phenyl)-1H-indazole-5-carboxamide]
≤ 5 µM: IC50 [1] | GI50 [2] | IC50 [3] | IC50 [4] | GI50 [5] | GI50 [6]

O=C(Nc1ccc2[nH]nc(-c3ccc(N4CCC(CO)CC4)cc3)c2c1)C(c1ccsc1)N1CCCC1 (centres unmarked) [Example A95, N-(3-(4-(4-(hydroxymethyl)piperidin-1-yl)phenyl)-1H-indazol-5-yl)-2-(pyrrolidin-1-yl)-2-(thiophen-3-yl)acetamide]
≤ 5 µM: IC50 [1] | GI50 [2] | IC50 [3] | IC50 [4] | GI50 [5] | GI50 [6] | GI50 [7]

O=C(NC(c1ccccc1)C1CC1)c1ccc2[nH]nc(-c3ccc(OC4CCN(CCF)CC4)cc3)c2c1 (centres unmarked) [Example A122, N-(cyclopropyl(phenyl)methyl)-3-(4-((1-(2-fluoroethyl)piperidin-4-yl)oxy)phenyl)-1H-indazole-5-carboxamide]
≤ 5 µM: IC50 [1] | GI50 [2] | IC50 [3] | GI50 [5] | GI50 [6] | GI50 [7]

COc1cc(-c2n[nH]c3ccc(C(=O)NC(c4ccccc4)C4CC4)cc23)ccc1OC1CCN(C=O)CC1 (centres unmarked) [Example A205, N-(cyclopropyl(phenyl)methyl)-3-(4-((1-formylpiperidin-4-yl)oxy)-3-methoxyphenyl)-1H-indazole-5-carboxamide]
≤ 5 µM: IC50 [1] | GI50 [2] | IC50 [3] | IC50 [4] | GI50 [5] | GI50 [6]

COC(C(=O)Nc1ccc2[nH]nc(-c3ccc(N4CCC(O)CC4)cc3)c2c1)c1ccsc1 (centres unmarked) [Example A87, N-(3-(4-(4-hydroxypiperidin-1-yl)phenyl)-1H-indazol-5-yl)-2-methoxy-2-(thiophen-3-yl)acetamide]
≤ 5 µM: IC50 [1] | GI50 [2] | IC50 [3] | GI50 [5] | GI50 [6] | GI50 [7]

O=C(Nc1ccc2[nH]nc(-c3ccc(N4CCC(O)CC4)cc3)c2c1)C(c1ccsc1)N1CCC1 (centres unmarked) [Example A200, 2-(azetidin-1-yl)-N-(3-(4-(4-hydroxypiperidin-1-yl)phenyl)-1H-indazol-5-yl)-2-(thiophen-3-yl)acetamide]
≤ 5 µM: IC50 [1] | GI50 [2] | IC50 [3] | IC50 [4] | GI50 [5] | GI50 [6]

O=CN1CCC(Oc2ccc(-c3n[nH]c4ccc(C(=O)N[C@H](c5ccccn5)C5CC5)cc34)cc2)CC1 [Example A204, (S)—N-(cyclopropyl(pyridin-2-yl)methyl)-3-(4-((1-formylpiperidin-4-yl)oxy)phenyl)-1H-indazole-5-carboxamide]
≤ 5 µM: IC50 [1] | GI50 [2] | IC50 [3] | IC50 [4] | GI50 [5] | GI50 [6]

CC(C)(O)C1CCN(c2ccc(-c3n[nH]c4ccc(NC(=O)C(c5ccsc5)N5CCC5)cc34)cc2)CC1 (centres unmarked) [Example A201, 2-(azetidin-1-yl)-N-(3-(4-(4-(2-hydroxypropan-2-yl)piperidin-1-yl)phenyl)-1H-indazol-5-yl)-2-(thiophen-3-yl)acetamide]
≤ 5 µM: IC50 [1] | GI50 [2] | IC50 [3] | IC50 [4] | GI50 [5] | GI50 [6]

O=C(NC(c1ccsc1)C1CCC1)c1ccc2[nH]nc(-c3ccc(N4CCOCC4)cc3)c2c1 (centres unmarked) [Example A123, N-(cyclobutyl(thiophen-3-yl)methyl)-3-(4-morpholinophenyl)-1H-indazole-5-carboxamide]
≤ 5 µM: IC50 [1] | GI50 [2] | IC50 [3] | IC50 [4] | GI50 [5] | GI50 [6]

O=C(N[C@@H](c1ccccn1)C1CC1)c1ccc2[nH]nc(-c3ccc(OC4CCN(C5COC5)CC4)cc3)c2c1 [Example A196, (R)—N-(cyclopropyl(pyridin-2-yl)methyl)-3-(4-((1-(oxetan-3-yl)piperidin-4-yl)oxy)phenyl)-1H-indazole-5-carboxamide]
≤ 5 µM: IC50 [1] | GI50 [2] | IC50 [3] | IC50 [4] | GI50 [5] | GI50 [6]

O=CN1CCC(Oc2ccc(-c3n[nH]c4ccc(C(=O)N[C@@H](c5ccccn5)C5CC5)cc34)cc2)CC1 [Example A203, (R)—N-(cyclopropyl(pyridin-2-yl)methyl)-3-(4-((1-formylpiperidin-4-yl)oxy)phenyl)-1H-indazole-5-carboxamide]
≤ 5 µM: IC50 [1] | GI50 [2] | IC50 [3] | IC50 [4] | GI50 [5] | GI50 [6]

COc1cc(-c2n[nH]c3ccc(C(=O)NC(c4ccccn4)C4CC4)cc23)ccc1OC1CCN(C2COC2)CC1 (centres unmarked) [Example A195]
≤ 5 µM: IC50 [1] | GI50 [2] | IC50 [3] | IC50 [4] | GI50 [5] | GI50 [6]

Source: patent US20140051679A1, “KINASE INHIBITORS AND METHOD OF TREATING CANCER WITH SAME” (UNIVERISTY HEALTH NETWORKS, priority 2011, published 2014)
